Experiments:
[1] = tested on: Aspergillus niger, Trichoderma viride, Rhizopus sp., Penicillium sp., Aspergillus flavus and Fusarium graminearum; format: cell-based, fungi isolated from germinating maize kernels; conditions: for effect on fungal growth: 1 mM in PDA; for growth of fungal pathogens: 10 and 3.3 mM in PDA
[2] = tested on: Pseudomonas syringae pv. tomato DC3000 and Xanthomonas campestris pv. vesicatoria; format: cell-based
[3] = tested on: jasmonic acid and ethylene production in maize leaves; test: Phytohormone (JA, ET) production in treated leaves; format: in vivo, Zea mays; conditions: low equivalent quantities of either elicitor
Excerpt: A further embodiment is ZmPEP3 regulated production of defense-related metabolites. The elicitor-induced phytohormones JA and ethylene (ET) function as signals integral to initiation of protective responses against pathogens and herbivores (Howe and Jander, Annu Rev Plant Biol. 59:41, 2008).

[4] = tested on: defense metabolites in maize leaves; test: Accumulation of defense metabolites within treated leaves (internal pools); format: in vivo, Zea mays; conditions: following treatment
Excerpt: Induced terpene production is vital to anti-herbivore defenses in many plant species (Unsicker et al., Curr Opin Plant Biol. 12:479, 2009; Tholl, Curr Opin Plant Biol. 9:297, 2006; Keeling and Bohlmann, New Phytol 170:657, 2006). […] Expression of genes encoding the relevant biosynthetic enzymes, Anthranilic Acid Methyl Transferase 1 (AAMT1) and Indole-Glycerol Phosphate Lyase (IGL) were induced by both peptide and the insect elicitor ([…]., Plant Physiol 153:1795, 2010; Frey et al., Proc Natl Acad Sci USA. 97:14801, 2000). In addition to proteinaceous defenses, maize benzoxazinoids contribute to direct defenses against both herbivores and pathogens ([…] Agric Food Chem 57:1677, 2009). […] Oikawa et al., Phytochemistry. 56:669, 2001; Huffaker et al., Plant Physiol. 155:1325, 2011). […] It is hypothesized that simultaneous activation of both IGL and BX1 by ZmPep3 results in increased flux through the benzoxazinoid pathway to produce HDMBOA-Glc.

Cotesia marginiventris = test: Olfactometer assay of parasitoid wasp attraction to pretreated leaves; format: in vivo; conditions: naive C. marginiventris
Excerpt: The generalist parasitoid Cotesia marginiventris attacks many Lepidopteran species including S. exigua and is attracted to herbivory-induced maize volatiles (Turlings et al., Science 250:1251, 1990). Precisely which components are attractive has been difficult to determine, and the wasps respond strongly to unidentified minor components when subjected to gas chromatograph-coupled electroantennography (Gouinguene et al., J Chem Ecol. 31:1023, 2005). To determine whether the ZmPep3-induced blend was attractive to naïve C. marginiventris, olfactometer assays were conducted with leaves pretreated with ZmPep3, Gln-18:3 or water for 16 h. To ensure that any preference was due to elicited plant responses and not to an inherent attraction or repellence to any treatment substance, leaves treated at time of assay were used as controls. […] Thus, ZmPep3-regulated responses are sufficient to generate effective indirect defenses against Lepidopteran herbivores.

[5] = tested on: herbivore defense genes in maize leaves; test: Real time qPCR / qRT-PCR of defense and phytohormone biosynthesis genes in treated leaves
[6] = tested on: defense metabolites in maize leaves; conditions: in vivo; cited from earlier work

## C=CC(C)(O)CCC=C(C)CCC=C(C)C (centres unmarked) [Nerolidol, nerolidol]
[1]; 10 mM to 0.3 mM
  fungal (microbial) growth at any concentration: did not limit microbial growth
[1]; all concentrations tested
  sporulation of all fungi: strong inhibitor of sporulation
[2]
  bacterial (microbial) growth at any concentration: did not limit microbial growth

## CC/C=C\C/C=C\C/C=C\CCCCCCCC(=O)N[C@@H](CCC(N)=O)C(=O)O [Gln-18:3, N-Linolenoyl-L-glutamine, reference compound]
[3]
  JA and ET synthesis: elicitation of JA and ET synthesis
[4]
  anthranilate and indole in leaves: increased
Cotesia marginiventris
  wasp preference for leaves pretreated 16 h vs leaves treated at time of assay: did not display a statistically significant preference
[5]; 12 h post-treatment
  BX1 and BX2 expression by qRT-PCR: expressed
[5]; equivalent molar concentrations
  expression of genes encoding Terpene Synthases (TPS) 10 and 23: strongly activate expression
[5]; in vivo
  expression of AAMT1 and IGL genes: induced
[5]; low equivalent quantities of elicitor
  accumulation of transcripts for ACC Oxidase, Allene Oxide Synthase and Allene Oxide Cyclase: significantly increased accumulation of transcripts

## CC/C=C\C[C@H]1C(=O)CC[C@@H]1CC(=O)O [JA, jasmonic acid]
[6]
  HDMBOA-Glc induction (literature): induced

## hexenal
[1]
  effect on fungal growth: reduced
  growth of fungal pathogens: prevented growth
[2]
  effect on bacterial (microbial) growth: reduced
  growth of bacterial pathogens: prevented growth

## C[C@@H]1[C@H](O)[C@@H](C)/C=C/C=C/C=C/C=C/C=C/C=C/C=C/[C@H](O[C@@H]2O[C@H](C)[C@@H](O)[C@H](N)[C@@H]2O)C[C@@H]2O[C@](O)(C[C@@H](O)C[C@@H](O)[C@H](O)CC[C@@H](O)C[C@@H](O)CC(=O)O[C@H]1C)C[C@H](O)[C@H]2C(=O)O [amphotericin B, reference compound]
[1]; three days after inoculation
  fungal growth on antimycotic-supplemented medium: have not spread from the center well
[2]
  bacterial growth on antimycotic-supplemented medium: proliferated unaffected

## C=CC(C)(O)CCC=C(C)C (centres unmarked) [linalool]
[1]
  effect on fungal growth: reduced
  growth of fungal pathogens: prevented growth
[2]
  effect on bacterial (microbial) growth: reduced
  growth of bacterial pathogens: prevented growth

## c1ccc2[nH]ccc2c1 [indole]
[1]
  effect on fungal growth: moderate limiting effect
  growth of fungal pathogens: prevented growth
[2]
  bacterial growth at the lowest concentration tested: particularly effective at limiting bacterial growth
  growth of bacterial pathogens: prevented growth

## ZmPEP1: previously identified maize plant elicitor peptide VRRRPTTPGRPREGSGGNGGNHH (SEQ ID NO: 1) (Zea mays)
[6]
  HDMBOA-Glc induction (literature): induced
